Measurements published in ChEMBL document CHEMBL1201862, “PubChem BioAssay data set” (2004).
The source made the active and inactive calls.

What was measured:
[1] = Trypanosoma cruzi growth suppression in host cells – NIH3T3 host cells, beta-gal luminescence, confirmation (AID 2044); type: functional, cell-based;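 also: intracellular parasites grown in NIH/3T3 mouse fibroblasts as host cells; luminescent beta-galactosidase reporter signal from transgenic T. cruzi replicating inside host cells; inhibitors lower the luminescence signal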
[2] = NIH3T3 cell viability loss – ATP luminescence, mouse fibroblasts, counter-screen, dose response (AID 2010); type: functional, cell-based;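 also: cells exposed to compound for about 90 hours before reading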
[3] = biological target: T1, Corticotropin-releasing factor receptor 2/Corticotropin-releasing factor-binding protein (Homo sapiens, UniProt P24387+Q13324); assay: activators of CRF receptor 2 with binding protein – uHTS hits, confirmation (AID 602473); type: functional; details: read-out: EC50_Mean
T1 sequence (Q13324 whole entry): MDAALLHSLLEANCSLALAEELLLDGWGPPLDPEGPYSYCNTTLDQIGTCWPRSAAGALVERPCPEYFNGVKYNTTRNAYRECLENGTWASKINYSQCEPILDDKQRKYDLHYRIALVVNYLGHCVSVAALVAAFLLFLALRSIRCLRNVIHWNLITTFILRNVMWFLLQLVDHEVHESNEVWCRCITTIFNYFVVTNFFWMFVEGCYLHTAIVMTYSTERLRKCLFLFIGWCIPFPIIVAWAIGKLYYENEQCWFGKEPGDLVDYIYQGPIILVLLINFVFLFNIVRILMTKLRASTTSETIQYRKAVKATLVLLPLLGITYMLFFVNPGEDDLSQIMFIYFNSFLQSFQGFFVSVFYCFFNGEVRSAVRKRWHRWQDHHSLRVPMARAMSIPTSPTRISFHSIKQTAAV
T1 sequence (P24387 whole entry): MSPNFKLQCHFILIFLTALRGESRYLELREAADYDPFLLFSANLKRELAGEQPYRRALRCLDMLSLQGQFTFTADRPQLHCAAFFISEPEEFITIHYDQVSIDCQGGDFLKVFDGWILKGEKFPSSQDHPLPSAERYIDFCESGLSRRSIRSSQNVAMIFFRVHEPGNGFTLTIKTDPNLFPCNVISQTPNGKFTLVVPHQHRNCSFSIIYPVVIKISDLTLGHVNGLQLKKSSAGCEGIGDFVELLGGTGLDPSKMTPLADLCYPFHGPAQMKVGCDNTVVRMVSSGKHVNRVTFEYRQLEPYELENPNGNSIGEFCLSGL

[4] = test system: Streptococcus sp. 'group A'; assay: Streptococcus pyogenes SK(-)GAS viability under kanamycin – luminescence, BacTiterGlo, confirmation, counter-screen for streptokinase expression inhibitor project, dose response (AID 1900); type: functional, organism-based
Streptococcus = assay: GAS UMAA2166 growth inhibition – luminescence, BacTiterGlo, counter-screen for streptokinase expression inhibitor project, dose response (AID 1915); type: functional, organism-based;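 also: potency for reduction of bacterial viability or growth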
Streptokinase A = biological target: T2, Streptokinase A (Streptococcus pyogenes serotype M1, UniProt P10520); assay: viability-normalized secreted streptokinase activity reduction – plasminogen activation absorbance, OD405, dose response (AID 1914); type: functional, Streptococcus pyogenes M1 GAS;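 also: secreted streptokinase activity via plasminogen activation per viability signal from cell pellet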
T2 sequence (P10520 whole entry): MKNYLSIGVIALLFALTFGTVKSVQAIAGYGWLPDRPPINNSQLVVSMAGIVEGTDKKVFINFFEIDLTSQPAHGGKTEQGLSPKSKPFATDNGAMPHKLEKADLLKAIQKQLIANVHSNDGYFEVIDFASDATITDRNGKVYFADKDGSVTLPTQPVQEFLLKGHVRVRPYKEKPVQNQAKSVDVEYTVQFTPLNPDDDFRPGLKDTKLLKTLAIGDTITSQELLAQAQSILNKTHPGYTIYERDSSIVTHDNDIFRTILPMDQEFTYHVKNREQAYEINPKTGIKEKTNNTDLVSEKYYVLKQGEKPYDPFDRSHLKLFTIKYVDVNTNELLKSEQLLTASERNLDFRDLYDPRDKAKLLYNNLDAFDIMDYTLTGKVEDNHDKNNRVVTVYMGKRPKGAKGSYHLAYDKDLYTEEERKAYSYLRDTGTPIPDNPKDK

Cytochrome P450 3A4 = Cytochrome P450 3A4 (Homo sapiens, UniProt P08684);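 also: CYP3A4 tested as one member of a cytochrome P450 panel screen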
Cytochrome P450 2C19 = Cytochrome P450 2C19 (Homo sapiens, UniProt P33261); assay: Cytochrome panel assay with activity outcomes. Panel member name: p450-cyp2c19 Compounds with AC50 equal or less than 10 uM are considered active; type: functional
Cytochrome P450 2C9 = Cytochrome P450 2C9 (Homo sapiens, UniProt P11712)
Cytochrome P450 2C9, sequence (P11712 whole entry): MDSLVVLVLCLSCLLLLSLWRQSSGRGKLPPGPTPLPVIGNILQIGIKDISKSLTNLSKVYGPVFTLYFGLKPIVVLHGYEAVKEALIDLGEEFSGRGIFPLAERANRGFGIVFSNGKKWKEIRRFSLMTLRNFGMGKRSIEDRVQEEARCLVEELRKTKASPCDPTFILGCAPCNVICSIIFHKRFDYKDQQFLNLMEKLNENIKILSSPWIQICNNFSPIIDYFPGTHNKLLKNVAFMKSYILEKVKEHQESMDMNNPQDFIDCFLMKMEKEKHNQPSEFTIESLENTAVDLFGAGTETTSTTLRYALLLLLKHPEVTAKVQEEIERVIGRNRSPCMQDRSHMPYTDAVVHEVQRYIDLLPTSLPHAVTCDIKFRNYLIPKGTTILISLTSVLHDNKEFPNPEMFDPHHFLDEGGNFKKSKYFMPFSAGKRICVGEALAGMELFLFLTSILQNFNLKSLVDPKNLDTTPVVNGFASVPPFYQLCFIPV

Cytochrome P450 2C19, sequence (P33261 whole entry): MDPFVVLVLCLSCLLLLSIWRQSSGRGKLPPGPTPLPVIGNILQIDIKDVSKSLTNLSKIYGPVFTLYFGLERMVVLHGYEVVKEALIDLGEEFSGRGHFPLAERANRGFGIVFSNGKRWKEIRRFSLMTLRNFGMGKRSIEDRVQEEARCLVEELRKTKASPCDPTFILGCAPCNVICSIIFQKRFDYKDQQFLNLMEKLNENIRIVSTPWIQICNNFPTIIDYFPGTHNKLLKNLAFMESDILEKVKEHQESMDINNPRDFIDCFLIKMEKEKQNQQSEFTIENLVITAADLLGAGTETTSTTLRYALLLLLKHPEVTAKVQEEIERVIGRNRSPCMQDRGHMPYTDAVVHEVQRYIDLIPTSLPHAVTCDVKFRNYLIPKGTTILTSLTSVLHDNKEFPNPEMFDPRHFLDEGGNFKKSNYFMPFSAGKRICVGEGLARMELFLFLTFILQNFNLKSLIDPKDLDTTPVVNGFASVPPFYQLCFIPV
Cytochrome P450 3A4, sequence (P08684 whole entry): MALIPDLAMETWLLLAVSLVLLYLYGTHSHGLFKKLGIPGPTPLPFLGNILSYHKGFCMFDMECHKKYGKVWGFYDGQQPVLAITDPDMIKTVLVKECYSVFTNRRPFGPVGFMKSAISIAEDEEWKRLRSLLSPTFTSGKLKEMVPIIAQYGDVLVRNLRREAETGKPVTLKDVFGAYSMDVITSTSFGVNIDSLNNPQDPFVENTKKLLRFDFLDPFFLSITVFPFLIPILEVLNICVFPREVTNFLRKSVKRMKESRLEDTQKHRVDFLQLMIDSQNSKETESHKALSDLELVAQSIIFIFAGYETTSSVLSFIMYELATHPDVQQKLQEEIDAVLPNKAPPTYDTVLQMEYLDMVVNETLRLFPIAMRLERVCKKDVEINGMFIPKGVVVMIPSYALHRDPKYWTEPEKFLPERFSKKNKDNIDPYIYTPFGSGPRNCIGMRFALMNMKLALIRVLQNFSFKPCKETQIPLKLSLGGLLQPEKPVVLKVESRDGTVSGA

CN1CCN(c2oc(COc3ccc(-c4ccccc4)cc3)nc2C#N)CC1
EC50 [1]: 0.226 µM (active)
EC50 [2]: > 60 µM (not active)

CCc1ccccc1N1CN(Cc2ccco2)CNC1=S
EC50 [3]: > 53 µM (inactive)

Cc1cc(Oc2ccc(Cl)cc2)nc(-c2ccccc2O)n1
EC50 [4]: > 150 µM (not active)
EC50 (Streptococcus): > 150 µM (not active)
EC50 (Streptokinase A): 14.6 µM (active)

C=CCNC(=O)c1cccn1-c1ccsc1C(=O)OC
AC50 (Cytochrome P450 3A4): 14.1 µM (inconclusive)

CCOc1ccc(NC(=O)CCSc2nc3c(c(CC)c2C#N)C(=O)CC(C)(C)C3)cc1
EC50 [1]: 2.94 µM (active)
EC50 [2]: > 60 µM (inconclusive)

CCOc1ccc(Br)cc1C1C(C(=O)OC)=C(N)Oc2cc(N(C)C)ccc21 (centres undefined)
EC50 [1]: 0.826 µM (active)
EC50 [2]: 8.1 µM (active)

CCCCCCC(=O)NN/C=C1/C(=O)NC(=S)N(CCCC)C1=O
EC50 [4]: 5.51 µM (active)
EC50 (Streptococcus): 49.3 µM (active)
EC50 (Streptokinase A): > 150 µM (not active)

Cc1cc2c(NC(=O)Nc3ccc(C(F)(F)F)cc3)cccc2nn1
EC50 [1]: 4.55 µM (active)
EC50 [2]: > 60 µM (not active)

COc1ccc(Cc2noc(CN3CCN(Cc4cccc(Cl)c4)CC3)n2)cc1OC
EC50 [1]: 0.788 µM (active)
EC50 [2]: > 30 µM (not active)

O=c1c(-c2ccc(F)cc2)nc2cnc(N3CCOCC3)nc2n1Cc1cccs1
AC50 (Cytochrome P450 3A4): 15.8 µM (inconclusive)

CN=C(S)Nc1ccc2nc(C)c(C)nc2c1
AC50 (Cytochrome P450 2C19; read-out: AC50): 39.8 µM (inconclusive)
AC50 (Cytochrome P450 3A4): 17.8 µM (inconclusive)

CN(CCOc1ccccc1)CC(O)COCc1ccccc1F (centres undefined)
EC50 [1]: 0.526 µM (active)
EC50 [2]: > 60 µM (not active)

O=C(CCCCCn1c(=S)[nH]c2cc3c(cc2c1=O)OCO3)N1CCN(C2CCCCC2)CC1
AC50 (Cytochrome P450 2C19; read-out: AC50): 7.08 µM (inconclusive)

Cc1nc2cnc(N3CCOCC3)nc2n(C2CC2)c1=O
AC50 (Cytochrome P450 3A4): 15.8 µM (inconclusive)

O=C(COc1ccccc1)N1CCN(c2nnc(-c3ccccc3)c3ccccc23)CC1
EC50 [1]: 1.77 µM (active)
EC50 [2]: > 60 µM (not active)

COc1ccc(C(=O)Nc2scc(-c3ccc(Cl)cc3Cl)c2C(N)=O)cc1
AC50 (Cytochrome P450 3A4): 28.2 µM (inconclusive)

COc1ccc2c(CC#N)c[nH]c2c1
EC50 [3]: > 53 µM (inactive)

Cc1ccc(NS(=O)(=O)c2cc([N+](=O)[O-])ccc2NN=C(S)Nc2cccc(Cl)c2)c(C)c1
EC50 [4]: 0.833 µM (active)
EC50 (Streptococcus): 2.37 µM (active)

Cc1noc(C)c1-c1nccc(N(C)Cc2ccco2)n1
AC50 (Cytochrome P450 3A4): 25.1 µM (inconclusive)

Cn1cccc1C(=O)N1CCC2(CCCN(c3ccncc3)C2)CC1
AC50 (Cytochrome P450 2C9): 25.1 µM (inconclusive)

Cc1cn(CC[C@H](N)C(=O)O)c(=O)[nH]c1=O
AC50 (Cytochrome P450 2C19): inconclusive

Cc1nc(Nc2ccc(S(=O)(=O)N3CCCCC3C)cc2)c2nnn(Cc3ccccc3)c2n1 (centres undefined)
EC50 [1]: 1.92 µM (active)
EC50 [2]: > 60 µM (not active)

CCS(=O)(=O)N1CCN(c2ccc(C(=O)NC3C4CC5CC(C4)CC3C5)cc2[N+](=O)[O-])CC1 (centres undefined)
EC50 [1]: 2.32 µM (active)
EC50 [2]: > 30 µM (not active)

CC(C)(C)[Si](C)(C)c1c2c(nc3ccc(OCc4ccccc4)cc13)-c1cccc(=O)n1C2
AC50 (Cytochrome P450 2C9): 20 µM (inconclusive)

Cn1c(S)nnc1CNS(=O)(=O)c1ccc(F)cc1
AC50 (Cytochrome P450 2C19; read-out: AC50): 39.8 µM (inconclusive)

CN(C(=O)Cc1c(C(=O)O)n(C)c2ccccc12)c1ccc(F)cc1
EC50 [4]: > 150 µM (not active)
EC50 (Streptococcus): > 150 µM (not active)
EC50 (Streptokinase A): > 150 µM (not active)

Cc1ccc(NC(=S)/N=C(\N)Nc2nc(C)c3cc(C)c(C)cc3n2)cc1C
EC50 [1]: 1.98 µM (active)

COc1ccc(S(=O)(=O)N2Cc3ccccc3CC2C(=O)Nc2nccs2)cc1 (centres undefined)
AC50 (Cytochrome P450 3A4): 3.55 µM (active)

CCCC(=O)Nc1nc(-c2ccc3c(c2)CCN3S(C)(=O)=O)cs1
AC50 (Cytochrome P450 3A4): 7.94 µM (inconclusive)

O=S(=O)(NC(=NCc1ccccc1)c1ccccc1)c1ccc(Br)cc1
EC50 [4]: > 150 µM (not active)
EC50 (Streptococcus): > 150 µM (not active)
EC50 (Streptokinase A): 33.4 µM (active)

Cc1ccc(S(=O)(=O)NC2=NC(=O)/C(=C/c3cccnc3)S2)cc1
AC50 (Cytochrome P450 3A4): 0.891 µM (inconclusive)

CCOC(=O)NC1(C(F)(F)F)C(=O)N(Cc2ccccc2)C2=C1C(=O)CC(C)(C)C2 (centres undefined)
AC50 (Cytochrome P450 2C9): 28.2 µM (inconclusive)

CC1(C)CC2CC(C)(CN2C(=O)c2ccc([N+](=O)[O-])cc2[N+](=O)[O-])C1 (centres undefined)
EC50 [1]: 0.955 µM (active)
EC50 [2]: > 60 µM (not active)

N#Cc1cccc(-c2nc3cnc(N4CCNCC4)nc3n(C3CC3)c2=O)c1
AC50 (Cytochrome P450 3A4): 20 µM (inconclusive)

COc1ccc(NC(=O)C(OC(=O)c2cnc(C)cn2)c2ccccc2)cc1Cl (centres undefined)
EC50 [4]: 4.66 µM (active)
EC50 (Streptococcus): > 150 µM (not active)
EC50 (Streptokinase A): > 150 µM (not active)

c1cncc(-c2nc(NCCCN3CCOCC3)c3c4c(sc3n2)CCC4)c1
EC50 [1]: 2.58 µM (active)
EC50 [2]: > 60 µM (not active)

COc1cccc(-c2cc(C(=O)NCC3CCCO3)c3cc(Br)cc(C)c3n2)c1 (centres undefined)
EC50 [4]: > 150 µM (not active)
EC50 (Streptococcus): > 150 µM (not active)
EC50 (Streptokinase A): > 150 µM (not active)

Fc1ccc(COc2ccccc2CNCc2ccncc2)cc1
EC50 [1]: 2.14 µM (active)

Fc1ccc(NC(=S)N2CCn3cccc3C2c2cccnc2)cc1 (centres undefined)
EC50 [1]: 0.229 µM (active)
EC50 [2]: > 60 µM (not active)

COC(=O)NC/C=C\c1nc(CC/C=C\C(=O)O[C@H]2C[C@H]3CC(=O)O[C@@H](/C=C\CC(C)C)C[C@@H]4CC[C@H](C)[C@H](C[C@@H](OC)C[C@H](C2)O3)O4)co1
AC50 (Cytochrome P450 2C19): inconclusive

COc1ccc(-n2c(=O)cnc3cnc(Oc4ccccc4)nc32)cc1
AC50 (Cytochrome P450 2C19; read-out: AC50): 39.8 µM (inconclusive)

CCc1ccc(S(=O)(=O)NCC2(N3CCOCC3)CCCCC2)cc1
EC50 [3]: 6.83 µM (active)

CCC1(CC)C(=O)N(Cc2ccccc2)C(=O)N(Cc2ccccc2)C1=O
EC50 [1]: 1.71 µM (active)
EC50 [2]: > 30 µM (not active)

Cc1noc(C)c1C(=O)N1CCC2(CCCN(Cc3nccs3)C2)CC1
AC50 (Cytochrome P450 3A4): 12.6 µM (inconclusive)

O=C(Nc1nnc(C2CC2)s1)c1ccncc1
AC50 (Cytochrome P450 3A4): 14.1 µM (inconclusive)

CC(=O)N1CCC[C@@]2(CCN(c3ccncc3)C2)C1
AC50 (Cytochrome P450 3A4): 25.1 µM (inconclusive)

COc1ccc(NC(=O)c2cccc(Cn3cc(Br)c([N+](=O)[O-])n3)c2)c(C)c1
EC50 [1]: 0.32 µM (active)
EC50 [2]: 9.14 µM (active)

CCCCN=C(S)N1CCn2cccc2C1c1cccnc1 (centres undefined)
EC50 [1]: 1.77 µM (active)
EC50 [2]: > 60 µM (inconclusive)

CCOC(=O)C1=C(N)c2ccccc2CC1C1CCCC1 (centres undefined)
EC50 [4]: 7.81 µM (active)
EC50 (Streptococcus): 11.9 µM (active)
EC50 (Streptokinase A): 19.3 µM (active)

C=CCC[C@H](Cc1ccc(F)cc1)C(=O)OC[C@H](Cc1c[nH]c2ccccc12)NC(=O)[C@@H](CC=C)CC(=O)NCCO
EC50 [3]: 12.8 µM (active)

COc1ccccc1NC(=O)N1CCCC1C(=O)NCc1ccc2c(c1)OCO2 (centres undefined)
AC50 (Cytochrome P450 2C19; read-out: AC50): 28.2 µM (inconclusive)

COc1ccc2c(c1)CCCC21NC(=O)N(CC(N)=O)C1=O (centres undefined)
AC50 (Cytochrome P450 2C19; read-out: AC50): 39.8 µM (inconclusive)

CCC1CCCCN1C(=O)COC(=O)COc1ccc(Br)cc1 (centres undefined)
EC50 [3]: > 53 µM (inactive)

O=C(C/C=N/OCc1ccc(F)cc1Cl)c1cnc(-c2ccccc2)s1
AC50 (Cytochrome P450 3A4): 14.1 µM (inconclusive)

OCCNc1ncnc2nc[nH]c12
AC50 (Cytochrome P450 3A4): 0.251 µM (inconclusive)

COc1cc(N)c(Cl)cc1C(=O)CCC1CCN(CCNS(C)(=O)=O)CC1
AC50 (Cytochrome P450 3A4): 15.8 µM (inconclusive)

CCC1(C)CC(=O)NC(=O)C1 [BEMEGRIDE]
AC50 (Cytochrome P450 2C19): inconclusive

Cc1ncsc1CCCl [CLOMETHIAZOLE]
AC50 (Cytochrome P450 2C9): 2.51 µM (inconclusive)
